{"source": "ChEMBL document CHEMBL1201862", "about": "“PubChem BioAssay data set” (2004)", "key": {"[1]": {"biological_target": "T1, E3 ubiquitin-protein ligase XIAP (Homo sapiens, UniProt P98170)", "T1 sequence (P98170 whole entry)": "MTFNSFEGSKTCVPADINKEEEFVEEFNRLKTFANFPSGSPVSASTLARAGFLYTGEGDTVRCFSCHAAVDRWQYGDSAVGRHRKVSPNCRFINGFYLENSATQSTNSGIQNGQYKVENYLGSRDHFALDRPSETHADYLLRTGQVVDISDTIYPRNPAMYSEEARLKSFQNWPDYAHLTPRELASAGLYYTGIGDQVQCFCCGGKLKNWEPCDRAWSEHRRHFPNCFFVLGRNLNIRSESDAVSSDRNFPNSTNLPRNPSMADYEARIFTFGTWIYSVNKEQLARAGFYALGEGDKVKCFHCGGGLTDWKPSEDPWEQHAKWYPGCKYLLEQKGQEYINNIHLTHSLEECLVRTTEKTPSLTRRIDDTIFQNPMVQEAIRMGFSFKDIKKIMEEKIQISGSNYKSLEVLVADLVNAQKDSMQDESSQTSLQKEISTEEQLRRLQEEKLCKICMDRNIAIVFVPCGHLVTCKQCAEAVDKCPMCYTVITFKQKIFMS", "assay": "Counter Screen using XIAP-Bir3 for Chemical Antagonists of Bir1/2 domains of IAP-family anti-apoptotic proteins. [Related pubchem assays (depositor defined):AID1018, AID1449, AID1514, AID1638, AID1749, AID1750, AID488957, AID488963]"}, "[2]": {"biological_target": "T1, E3 ubiquitin-protein ligase XIAP", "assay": "XIAP antagonists, biochemical, IAP family, fluorescence polarization (AID 1018)", "assay_type": "functional"}, "[3]": {"assay": "cytotoxicity in HPDE-C7 cells, cell-based, fluorescence, HTS (AID 430)", "assay_type": "functional", "conditions": "Homo sapiens"}, "[4]": {"assay": "inhibitors of intracellular T. cruzi replication, confirmation, NIH3T3 host cells, beta-gal luminescence (AID 2044);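 further: luminescent beta-galactosidase reporter signal from transgenic T. cruzi replicating inside host cells; inhibitors lower the luminescence signal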", "assay_type": "functional, cell-based"}, "[5]": {"assay": "cytotoxicity in KRAS-transformed pancreatic duct cells, primary screen, cell-based, fluorescence, HTS (AID 431);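 further: cell line used: HPDE-C7K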", "assay_type": "functional", "conditions": "Homo sapiens"}, "[6]": {"assay": "cytotoxicity toward NIH3T3 fibroblasts, dose response, counter-screen, cell-based, ATP luminescence, mouse fibroblasts (AID 2010);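 further: cells exposed to compound for about 90 hours before reading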", "assay_type": "functional"}, "[7]": {"biological_target": "Glucose-6-phosphate 1-dehydrogenase (Homo sapiens, UniProt P11413)", "sequence (P11413 whole entry)": "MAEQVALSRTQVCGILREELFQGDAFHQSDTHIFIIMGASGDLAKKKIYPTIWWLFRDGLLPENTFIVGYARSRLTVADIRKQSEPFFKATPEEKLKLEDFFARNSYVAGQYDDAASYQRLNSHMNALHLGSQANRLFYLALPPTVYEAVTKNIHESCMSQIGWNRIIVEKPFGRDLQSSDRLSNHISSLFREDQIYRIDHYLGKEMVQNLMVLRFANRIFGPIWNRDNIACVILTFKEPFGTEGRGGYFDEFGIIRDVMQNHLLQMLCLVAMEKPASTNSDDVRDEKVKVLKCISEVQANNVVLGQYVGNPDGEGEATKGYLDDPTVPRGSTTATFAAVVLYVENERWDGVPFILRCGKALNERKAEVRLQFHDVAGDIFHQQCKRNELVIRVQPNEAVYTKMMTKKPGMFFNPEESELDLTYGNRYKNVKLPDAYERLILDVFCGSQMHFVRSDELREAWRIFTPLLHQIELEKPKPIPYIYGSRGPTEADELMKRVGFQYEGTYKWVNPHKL", "assay": "human G6PD enzyme inhibitors, dose response, selectivity assay for P. falciparum G6PD inhibitor project, biochemical, fluorescence (AID 504792)", "assay_type": "functional"}, "[8]": {"biological_target": "Neurotensin receptor type 1 (Homo sapiens, UniProt P30989)", "sequence (P30989 whole entry)": "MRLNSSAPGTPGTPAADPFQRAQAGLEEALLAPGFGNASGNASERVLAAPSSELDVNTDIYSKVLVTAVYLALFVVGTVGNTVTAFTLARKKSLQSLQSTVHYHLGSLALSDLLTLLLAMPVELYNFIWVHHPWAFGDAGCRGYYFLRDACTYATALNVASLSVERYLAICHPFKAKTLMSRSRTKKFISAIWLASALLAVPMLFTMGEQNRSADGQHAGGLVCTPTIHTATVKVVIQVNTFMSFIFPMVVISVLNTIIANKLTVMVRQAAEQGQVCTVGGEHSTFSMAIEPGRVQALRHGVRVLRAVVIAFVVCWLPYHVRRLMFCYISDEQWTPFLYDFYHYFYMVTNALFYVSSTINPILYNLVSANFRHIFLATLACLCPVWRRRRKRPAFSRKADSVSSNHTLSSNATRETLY", "assay_type": "functional"}, "Vero": {"system": "Vero", "assay": "cells", "assay_type": "functional", "conditions": "Chlorocebus sabaeus"}, "[9]": {"assay": "Shn3 3'UTR reporter inhibitors, dose response, cell-based, Clone20 osteoblasts, firefly luciferase, cherry-picked (AID 624132)", "assay_type": "functional"}, "[10]": {"assay": "HepG2 cell cytotoxicity, dose response, cytotoxicity control for Shn3 inhibitor project, CellTiter-Glo, cherry-picked (AID 624134)", "assay_type": "functional, cell-based"}, "[11]": {"assay": "control 3'UTR Renilla luciferase suppression, dose response, counter-screen for Shn3 inhibitor project, cell-based, Clone20-Shn3RL, cherry-picked (AID 624133)", "assay_type": "functional"}, "[12]": {"biological_target": "Epstein-Barr nuclear antigen 1 (Epstein-Barr virus (strain B95-8) (HHV-4) (Human herpesvirus 4), UniProt P03211)", "sequence (P03211 whole entry)": "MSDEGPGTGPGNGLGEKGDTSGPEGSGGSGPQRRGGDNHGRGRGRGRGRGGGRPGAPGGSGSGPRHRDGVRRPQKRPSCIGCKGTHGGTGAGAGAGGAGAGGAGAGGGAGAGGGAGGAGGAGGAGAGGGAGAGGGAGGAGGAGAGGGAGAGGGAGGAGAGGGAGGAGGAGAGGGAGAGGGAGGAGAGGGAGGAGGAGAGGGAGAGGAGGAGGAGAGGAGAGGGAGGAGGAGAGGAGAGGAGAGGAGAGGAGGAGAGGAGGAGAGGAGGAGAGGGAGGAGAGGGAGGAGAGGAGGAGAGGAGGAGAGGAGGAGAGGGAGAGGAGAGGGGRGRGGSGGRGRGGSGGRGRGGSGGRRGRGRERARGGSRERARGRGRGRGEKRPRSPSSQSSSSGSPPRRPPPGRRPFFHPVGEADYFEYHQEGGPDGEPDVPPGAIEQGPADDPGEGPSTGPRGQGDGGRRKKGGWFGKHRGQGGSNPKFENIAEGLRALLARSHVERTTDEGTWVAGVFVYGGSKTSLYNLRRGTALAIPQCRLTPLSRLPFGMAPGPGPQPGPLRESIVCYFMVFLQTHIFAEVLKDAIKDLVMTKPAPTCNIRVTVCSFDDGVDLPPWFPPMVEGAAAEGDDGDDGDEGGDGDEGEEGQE", "assay": "EBNA-1 inhibitors, dose response, biochemical, fluorescence polarization, 1536-well (AID 2381);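 further: fluorescence polarization of a Cy5 DNA probe bound by EBNA-1 protein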", "parameters": "species or system human gammaherpesvirus 4"}, "[13]": {"biological_target": "Lytic switch protein BZLF1 (Epstein-Barr virus (strain B95-8) (HHV-4) (Human herpesvirus 4), UniProt P03206)", "sequence (P03206 whole entry)": "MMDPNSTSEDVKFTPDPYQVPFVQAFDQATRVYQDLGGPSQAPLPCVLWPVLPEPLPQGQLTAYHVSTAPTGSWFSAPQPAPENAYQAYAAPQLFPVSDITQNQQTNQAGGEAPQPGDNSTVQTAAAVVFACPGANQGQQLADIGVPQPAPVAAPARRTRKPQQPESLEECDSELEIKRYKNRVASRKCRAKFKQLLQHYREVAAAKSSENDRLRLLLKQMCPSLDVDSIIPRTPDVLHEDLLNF", "assay": "EBV ZTA inhibitors, dose response, counter-screen for EBNA-1 inhibitor project, biochemical, fluorescence polarization, Epstein-Barr virus, 1536-well (AID 2377);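 further: fluorescence polarization of Cy5-labelled ZRE DNA probe bound by purified Zta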", "parameters": "species or system human gammaherpesvirus 4"}, "Estrogen receptor": {"biological_target": "T2, Estrogen receptor (Homo sapiens, UniProt P03372)", "T2 sequence (P03372 whole entry)": "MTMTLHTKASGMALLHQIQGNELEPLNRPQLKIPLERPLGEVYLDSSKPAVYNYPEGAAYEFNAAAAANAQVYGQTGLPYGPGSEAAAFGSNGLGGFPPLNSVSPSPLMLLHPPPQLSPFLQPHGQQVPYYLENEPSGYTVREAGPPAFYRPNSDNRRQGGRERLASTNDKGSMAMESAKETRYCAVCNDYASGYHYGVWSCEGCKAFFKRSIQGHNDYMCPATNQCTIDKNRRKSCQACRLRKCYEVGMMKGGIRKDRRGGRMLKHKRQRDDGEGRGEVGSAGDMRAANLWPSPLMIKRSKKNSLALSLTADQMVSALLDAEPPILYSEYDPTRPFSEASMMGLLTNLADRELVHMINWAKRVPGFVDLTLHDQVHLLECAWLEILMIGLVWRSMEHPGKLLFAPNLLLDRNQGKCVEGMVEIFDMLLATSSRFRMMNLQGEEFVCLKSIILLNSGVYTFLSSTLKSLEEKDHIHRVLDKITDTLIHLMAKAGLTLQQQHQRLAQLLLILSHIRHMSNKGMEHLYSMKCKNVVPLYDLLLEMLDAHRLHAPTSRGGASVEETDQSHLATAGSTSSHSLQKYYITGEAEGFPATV"}, "[14]": {"biological_target": "Peroxisome proliferator-activated receptor gamma/Nuclear receptor coactivator 2 (Homo sapiens, UniProt P37231)", "assay_type": "functional"}, "[15]": {"biological_target": "Peroxisome proliferator-activated receptor gamma/Nuclear receptor coactivator 1 (Homo sapiens, UniProt P37231)", "assay_type": "functional"}, "[16]": {"biological_target": "Peroxisome proliferator-activated receptor gamma/Nuclear receptor coactivator 3 (Homo sapiens, UniProt P37231)", "sequence (P37231 whole entry)": "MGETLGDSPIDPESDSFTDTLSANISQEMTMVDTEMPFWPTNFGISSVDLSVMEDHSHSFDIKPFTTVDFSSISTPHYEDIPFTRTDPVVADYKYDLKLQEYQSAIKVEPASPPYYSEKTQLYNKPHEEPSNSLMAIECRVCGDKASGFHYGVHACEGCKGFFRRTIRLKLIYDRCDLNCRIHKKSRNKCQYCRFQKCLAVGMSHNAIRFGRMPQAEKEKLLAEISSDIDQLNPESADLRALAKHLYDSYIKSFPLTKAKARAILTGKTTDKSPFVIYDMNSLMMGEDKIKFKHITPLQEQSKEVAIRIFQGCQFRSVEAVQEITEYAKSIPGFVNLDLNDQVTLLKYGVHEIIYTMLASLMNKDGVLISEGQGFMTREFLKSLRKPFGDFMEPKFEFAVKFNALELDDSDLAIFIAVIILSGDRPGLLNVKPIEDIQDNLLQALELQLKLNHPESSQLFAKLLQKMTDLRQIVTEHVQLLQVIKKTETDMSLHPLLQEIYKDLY", "sequence (Q9Y6Q9 whole entry, further chain)": "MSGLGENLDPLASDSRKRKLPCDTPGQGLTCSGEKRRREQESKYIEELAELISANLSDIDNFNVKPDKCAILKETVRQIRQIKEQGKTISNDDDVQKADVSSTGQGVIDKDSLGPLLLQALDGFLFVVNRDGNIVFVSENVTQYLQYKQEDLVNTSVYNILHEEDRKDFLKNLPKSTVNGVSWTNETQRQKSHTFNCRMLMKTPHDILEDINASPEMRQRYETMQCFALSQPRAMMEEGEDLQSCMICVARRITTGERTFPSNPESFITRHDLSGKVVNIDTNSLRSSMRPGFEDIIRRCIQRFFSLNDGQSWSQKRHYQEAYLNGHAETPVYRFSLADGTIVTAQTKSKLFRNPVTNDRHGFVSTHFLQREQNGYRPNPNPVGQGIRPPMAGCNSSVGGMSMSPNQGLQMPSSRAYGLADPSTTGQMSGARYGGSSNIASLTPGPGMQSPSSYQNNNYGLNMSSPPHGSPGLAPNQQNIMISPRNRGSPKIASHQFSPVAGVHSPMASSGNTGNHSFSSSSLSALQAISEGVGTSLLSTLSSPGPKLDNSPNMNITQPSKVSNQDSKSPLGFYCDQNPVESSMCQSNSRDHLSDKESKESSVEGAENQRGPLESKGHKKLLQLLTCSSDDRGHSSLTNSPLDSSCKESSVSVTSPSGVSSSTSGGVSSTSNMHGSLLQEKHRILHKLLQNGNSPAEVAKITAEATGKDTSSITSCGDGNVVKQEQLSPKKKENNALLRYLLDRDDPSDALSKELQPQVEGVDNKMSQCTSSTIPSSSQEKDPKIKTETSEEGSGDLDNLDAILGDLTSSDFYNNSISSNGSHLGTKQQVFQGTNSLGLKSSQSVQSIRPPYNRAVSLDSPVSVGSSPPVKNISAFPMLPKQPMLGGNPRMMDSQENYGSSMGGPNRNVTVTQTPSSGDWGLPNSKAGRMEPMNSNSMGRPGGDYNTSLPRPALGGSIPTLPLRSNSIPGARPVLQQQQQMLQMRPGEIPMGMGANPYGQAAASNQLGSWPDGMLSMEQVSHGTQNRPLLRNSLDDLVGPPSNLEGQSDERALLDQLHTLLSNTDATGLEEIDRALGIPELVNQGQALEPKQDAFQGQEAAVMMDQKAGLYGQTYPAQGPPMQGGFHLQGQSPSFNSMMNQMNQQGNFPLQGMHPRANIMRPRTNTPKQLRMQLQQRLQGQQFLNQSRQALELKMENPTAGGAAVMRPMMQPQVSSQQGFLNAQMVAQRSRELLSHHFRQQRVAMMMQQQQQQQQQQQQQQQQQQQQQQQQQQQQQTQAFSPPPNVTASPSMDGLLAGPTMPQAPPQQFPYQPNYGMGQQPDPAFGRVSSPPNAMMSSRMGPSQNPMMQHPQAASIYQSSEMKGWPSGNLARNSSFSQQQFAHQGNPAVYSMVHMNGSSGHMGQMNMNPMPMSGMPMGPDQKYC", "assay_type": "functional"}}, "note": "Activity calls are given as the source filed them."}
{"smiles": "Cc1sc2nc(CN(C(=O)NC3CCCCC3)C3CCCCC3)nc(O)c2c1C", "values": [{"measurement": "IC50", "setting": "[1]", "value": "> 100 µM (inactive)"}, {"measurement": "IC50", "setting": "[2]", "value": "> 100 µM (not active)"}]}
{"smiles": "O=C(Nc1ccc(N2CCN(C(=O)c3ccco3)CC2)c(Cl)c1)c1cc2ccccc2o1", "values": [{"measurement": "EC50", "setting": "[3]", "value": "17.5 µM (active)"}, {"measurement": "EC50", "setting": "[4]", "value": "2.3 µM (active)"}, {"measurement": "EC50", "setting": "[5]", "value": "16.2 µM (active)"}, {"measurement": "EC50", "setting": "[6]", "value": "8.95 µM (active)"}, {"measurement": "IC50", "setting": "[7]", "value": "> 80 µM (inactive)"}, {"measurement": "EC50", "setting": "[8]", "value": "6 µM (active)"}, {"measurement": "CC50", "setting": "Vero", "value": "11.2 µM (active)"}, {"measurement": "AC50", "setting": "[9]", "value": "5 µM (active)"}, {"measurement": "AC50", "setting": "[10]", "value": "7.49 µM (active)"}, {"measurement": "AC50", "setting": "[11]", "value": "17.6 µM (active)"}]}
{"smiles": "O=C(COC(=O)/C=C/c1ccccc1)Nc1cc(C(F)(F)F)ccc1N1CCOCC1", "values": [{"measurement": "IC50", "setting": "[12]", "value": "7.3 µM (active)"}, {"measurement": "IC50", "setting": "[13]", "value": "> 111 µM (not active)"}]}
{"smiles": "Cc1nnc(NC(=O)CSc2nc3c(c(=O)n2CCc2ccccc2)SC(C)C3)s1", "note": "(stereo not given)", "values": [{"measurement": "IC50", "setting": "Estrogen receptor", "value": "17.5 µM (active)"}]}
{"smiles": "Cc1cc(C(=O)N/N=C/c2c[nH]nc2-c2ccccc2)cs1", "values": [{"measurement": "EC50", "setting": "[14]", "value": "> 79.4 µM (not active)"}, {"measurement": "EC50", "setting": "[15]", "value": "> 79.4 µM (not active)"}, {"measurement": "EC50", "setting": "[16]", "value": "> 79.4 µM (not active)"}]}
{"smiles": "COc1ccc(C(=O)CSc2nnc(NC(=O)C3CC(=O)N(c4cccc(OC)c4)C3)s2)cc1", "note": "(stereo not given)", "values": [{"measurement": "IC50", "setting": "[12]", "value": "5.9 µM (active)"}, {"measurement": "IC50", "setting": "[13]", "value": "> 111 µM (not active)"}]}
